Measurements published in PMC10788915, “Fragment Merging, Growing, and Linking Identify New Trypanothione Reductase Inhibitors for Leishmaniasis” (Journal of Medicinal Chemistry, 2024).
Where two headings read alike, the source gives them in different places.

Experiments:
[1] = Cytotoxicity assay on primary murine macrophages (MTT); format: cell-based, Balb/c mice; conditions: Balb/c, mouse, primary peritoneal exudate macrophages, read-out: primary murine macrophage CC50 ± SE (95% CI)
Protocol: To assess the cytotoxicity of compounds on mammalian macrophages, we tested all the compounds against both human leukemia monocyte cell line (THP-1 cells, ATCC) differentiated into macrophages by treatment with 40 ng/mL of phorbol myristate acetate (PMA; Sigma) for 48 h and peritoneal exudate macrophages harvested from Balb/c mice. […] Cell viability was evaluated using the MTT assay, and the concentration of the compound that produced a 50% reduction of cell viability in treated culture cells with respect to untreated ones (CC50) was determined by GraphPad Prism 5.0 (GraphPad Software Inc., San Diego, USA). […] The selectivity index for each compound was calculated as the ratio of cytotoxicity (CC50) in macrophages cells to activity (IC50) against Leishmania axenic amastigotes. The experiments were performed in triplicate, and two independent experiments were conducted.

[2] = biological target: T1, Leishmania infantum TR (LiTR) (Leishmania infantum, UniProt A4HSF7); experiment: LiTR inhibition kinetics, Ki from Dixon plots; format: biochemical; conditions: for mode of inhibition of LiTR: Dixon plots; for Ki: graphically determined from Dixon plots
T1 construct: The TbTR and LiTR genes were subcloned in a pET28b vector; 6-His (cleaved yes); made in house; host or cells: E. coli BL21(DE3), pET28b
T1 sequence (A4HSF7 1-491): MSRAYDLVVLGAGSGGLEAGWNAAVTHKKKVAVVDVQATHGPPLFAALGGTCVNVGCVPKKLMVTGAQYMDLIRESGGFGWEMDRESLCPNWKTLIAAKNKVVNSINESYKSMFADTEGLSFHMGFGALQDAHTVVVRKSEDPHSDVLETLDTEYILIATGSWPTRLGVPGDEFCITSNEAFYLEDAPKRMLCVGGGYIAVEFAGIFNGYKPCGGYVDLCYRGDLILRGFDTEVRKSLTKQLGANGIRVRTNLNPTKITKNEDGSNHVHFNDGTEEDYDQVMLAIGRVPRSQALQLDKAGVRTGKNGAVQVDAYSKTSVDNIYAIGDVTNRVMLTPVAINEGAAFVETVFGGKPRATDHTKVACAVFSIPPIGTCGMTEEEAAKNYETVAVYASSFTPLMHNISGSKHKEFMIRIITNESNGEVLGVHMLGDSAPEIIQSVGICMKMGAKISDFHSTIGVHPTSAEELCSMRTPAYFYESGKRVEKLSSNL
Protocol: Enzymatic inhibition assays were performed in 50 mM HEPES pH 7.4, 40 mM NaCl at 25 °C using a JASCO V650 spectrophotometer equipped with a JASCO EHC 716 Peltier element to ensure controlled temperature. The first experiment was carried out using 50 nM LiTR, 10 or 100 μM compound to be tested, 150 μM trypanothione (trypanothione disulfide purchased from Bachem), and 100 μM NADPH (tetrasodium salt, purchased from Calbiochem). The best inhibitor candidates were then tested at concentrations ranging from 1 nM to 250 μM to determine the IC50. Assays were initiated upon addition of 100 μM NADPH to 50 nM LiTR or hGR (human glutathione reductase purchased from Sigma-Aldrich) in the presence of different concentration of compounds and 150 μM trypanothione. For both experiments, the oxidation of NADPH was followed as a decrease in absorbance at 340 nm. For each concentration of compound, the initial velocity of the NADPH oxidation was used to determine the percentage of LiTR activity with respect to that in the absence of any compound. The IC50 was determined upon fitting the residual activity of TR as a dose–response logistic equation defined as ymin + (ymax – ymin)/(1 + (x/IC50)^slope). […] The Ki was determined graphically upon linear fitting of data points for each trypanothione concentration. Data analysis was performed with QtiPlot 0.9.8.9 svn 2288, and graphs were made with Matplotlib. […]
assays were carried out at 25°C on a JASCO V650 spectrophotometer equipped with a JASCO EHC716 Peltier unit. Compound concentrations range from 1 to 6 µM. Briefly, 50 nM LiTR were mixed in 50 mM HEPES pH 7.4, 40 mM NaCl with each compound and various concentrations of trypanothione (reported on the figure). After 3-minute incubation at 25°C, the measurement was initiated upon addition of 100 µM NADPH. The oxidation of NADPH was followed as a decrease in absorbance at 340 nm. The inverse of the initial velocity of LiTR enzymatic reaction was reported as a function of the compound concentration. The intersection of the linear fitting of data at different trypanothione concentration provides a graphical determination of the inhibition constant K i. Each data point is the mean of three measurements.
(1 picture or pasted object on this page, not shown here)

[3] = test system: L. infantum axenic amastigotes; experiment: In vitro inhibition of axenic amastigote growth (MTT); format: cell-based, Leishmania infantum; conditions: 72 h, read-out: axenic amastigote EC50 ± SE (95% CI)
Protocol: Axenic amastigote growth inhibition was evaluated using L. infantum strain (MHOM/TN/80/IPT1, WHO international reference strain). Axenic amastigote cultures were obtained as described previously with modifications.[45] Promastigotes were grown in Schneider’s Drosophila medium (SIGMA) containing 10% heat-inactivated fetal calf serum (FCS)(GIBCO-BRL) and 2% gentamicin (50 mg/L)(Sigma) in 25 cm^2 flasks at 22 °C. After 4–5 days, the parasites were adjusted to 1 × 10^6 parasites/mL in axenic medium MAA/20 consisting of modified medium 199 (Gibco BRL) with Hanks’ salts supplemented with 0.5% tryptic soy broth (Sigma), 0.01 mM bathocuproine disulfonic acid, 3 mM L-cysteine, 15 mM D-glucose, 5 mM L-glutamine, 4 mM NaHCO3, 0.023 mM bovine hemin, and 25 mM HEPES to a final pH of 6.5 and supplemented with 20% pretested FCS, and axenic amastigotes were obtained by shifting the incubation conditions: 198 μL of suspension was seeded in triplicate in 96-well flat bottom microplates and incubated at 37 °C, 5% CO2 for 48 h in order to allow the axenization. The amastigote cells were visualized under the light microscope to confirm transformation. Then, 2 μL of the selected compounds with varying concentrations were added: 100, 50, 25, 12.5, 6.25, 3.12, 1.56, 0.8, 0.4, 0.2, 0.1, 0.05 μM. […] Each experiment was conducted in triplicate for each drug concentration, and three independent experiments were performed. To estimate the 50% inhibitory concentration (IC50), the (3-[4.5-dimethylthiazol-2-yl]-2.5-diphenyltetrazolium bromide) (MTT) micromethod was used throughout the experiments with modification. After 72 h of incubation, 30 μL of MTT was added to each well, and the plates were further incubated for 3 h. The absorbance at 550 nm was measured with a 96-well scanner. Antileishmanial activity was expressed as the percentage of inhibition in the number of live parasites compared to that in the control (nontreated parasites). % inhibition was calculated as follows: % growth inhibition = [(absorb cell with drug × 100)/absorb cell control] – 100. Results were analyzed by GraphPad Prism 5.0, dose–response curves were obtained and IC50 deduced (GraphPad Software Inc., San Diego, USA).

SMILES | CC50 at 72 h [1] | mode of inhibition of LiTR [2] | Ki [2] | EC50 [3] | EC50 ([3]; Leishmania infantum)
C[N+]1(CCCc2ccccc2)CCN(C(=O)N(Cc2ccc(C(=O)NCCc3ccc(F)cc3)o2)c2ccc(F)cc2)CC1.[I-] [Compound 9, 4-(((5-((4-Fluorophenethyl)carbamoyl)furan-2-yl)methyl)(4-fluorophenyl)carbamoyl)-1-methyl-1-(3-phenylpropyl)piperazin-1-ium Iodide] | 29.9 ± 4.2 µM | linear competitive inhibition | 5.5 ± 0.2 µM | 10.4 ± 1.1 µM | 10.4 µM
O=C(NCCc1ccc(F)cc1)c1ccc(CN(C(=O)N2CC[N+](CCCc3ccccc3)(Cc3ccc(Cl)c(Cl)c3)CC2)c2ccc(F)cc2)o1.[I-] [Compound 10, 1-(3,4-Dichlorobenzyl)-4-(((5-((4-fluorophenethyl)carbamoyl)furan-2-yl)methyl)(4-fluorophenyl)carbamoyl)-1-(3-phenylpropyl)piperazin-1-ium Iodide] | 12.5 ± 0.8 µM | linear competitive inhibition | 0.2 µM | – | 11 ± 1.9 µM
O=C(NCCc1ccc(F)cc1)c1ccc(CNC(=O)N2CC[N+](CCCc3ccccc3)(Cc3ccc(Cl)c(Cl)c3)CC2)o1.[I-] [Compound 14, 1-(3,4-Dichlorobenzyl)-4-(((5-((4-fluorophenethyl)carbamoyl)furan-2-yl)methyl)carbamoyl)-1-(3-phenylpropyl)piperazin-1-ium Iodide] | 12.7 ± 0.9 µM | linear competitive inhibition | 0.8 ± 0.2 µM | – | 8.98 ± 0.4 µM
